Test results from ChEMBL document CHEMBL5465560, “Selectivity Literature for EUbOPEN Chemogenomic Library” (2024).

Tests used:
[1] = target: T1, Mitogen-activated protein kinase kinase kinase 2 (Homo sapiens) (UniProt Q9Y2U5); experiment: Selectivity interaction (KinomeScan (DiscoverX)) EUB0001049a MAP3K2; details: at 1 µM
T1 sequence (whole entry): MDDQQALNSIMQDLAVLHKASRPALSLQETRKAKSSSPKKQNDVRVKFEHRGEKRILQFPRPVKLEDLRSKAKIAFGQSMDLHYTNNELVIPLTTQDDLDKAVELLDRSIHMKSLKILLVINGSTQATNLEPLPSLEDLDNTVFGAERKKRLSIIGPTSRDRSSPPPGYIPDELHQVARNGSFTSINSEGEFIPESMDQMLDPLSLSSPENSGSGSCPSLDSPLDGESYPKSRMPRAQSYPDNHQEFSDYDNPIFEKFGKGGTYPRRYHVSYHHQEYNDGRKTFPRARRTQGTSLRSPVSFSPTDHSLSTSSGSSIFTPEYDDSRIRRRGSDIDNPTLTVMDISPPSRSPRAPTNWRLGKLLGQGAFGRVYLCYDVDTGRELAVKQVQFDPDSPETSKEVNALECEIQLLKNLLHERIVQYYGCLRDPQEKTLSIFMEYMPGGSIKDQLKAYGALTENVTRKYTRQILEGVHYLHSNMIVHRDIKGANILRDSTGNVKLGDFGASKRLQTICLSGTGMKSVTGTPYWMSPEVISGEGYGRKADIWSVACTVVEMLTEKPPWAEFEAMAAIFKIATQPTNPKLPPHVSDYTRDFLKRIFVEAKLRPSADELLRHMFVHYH

[2] = target: Casein kinase I isoform gamma-3 (Homo sapiens) (UniProt Q9Y6M4); experiment: Selectivity interaction (KinomeScan (DiscoverX)) EUB0000045b CSNK1G3
Casein kinase I isoform gamma-3 (Homo sapiens), sequence (Q9Y6M4 whole entry, looked up, canonical isoform): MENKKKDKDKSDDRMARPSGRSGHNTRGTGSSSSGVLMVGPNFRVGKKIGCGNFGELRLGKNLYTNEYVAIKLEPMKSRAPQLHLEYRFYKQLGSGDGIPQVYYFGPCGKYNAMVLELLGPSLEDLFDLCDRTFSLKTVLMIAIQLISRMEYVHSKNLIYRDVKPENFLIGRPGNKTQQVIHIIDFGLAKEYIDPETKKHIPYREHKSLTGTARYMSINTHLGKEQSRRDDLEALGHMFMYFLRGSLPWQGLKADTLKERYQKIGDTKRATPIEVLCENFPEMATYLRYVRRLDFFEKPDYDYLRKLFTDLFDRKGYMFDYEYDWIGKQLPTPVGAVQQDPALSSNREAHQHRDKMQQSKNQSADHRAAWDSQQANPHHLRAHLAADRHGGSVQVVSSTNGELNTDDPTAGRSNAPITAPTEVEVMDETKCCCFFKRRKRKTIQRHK

[3] = target: T2, Serine/threonine-protein kinase D3 (Homo sapiens) (UniProt O94806); experiment: Selectivity interaction (KinomeScan (DiscoverX)) EUB0000695a PRKD3; details: at 100 nM
T2 sequence (whole entry): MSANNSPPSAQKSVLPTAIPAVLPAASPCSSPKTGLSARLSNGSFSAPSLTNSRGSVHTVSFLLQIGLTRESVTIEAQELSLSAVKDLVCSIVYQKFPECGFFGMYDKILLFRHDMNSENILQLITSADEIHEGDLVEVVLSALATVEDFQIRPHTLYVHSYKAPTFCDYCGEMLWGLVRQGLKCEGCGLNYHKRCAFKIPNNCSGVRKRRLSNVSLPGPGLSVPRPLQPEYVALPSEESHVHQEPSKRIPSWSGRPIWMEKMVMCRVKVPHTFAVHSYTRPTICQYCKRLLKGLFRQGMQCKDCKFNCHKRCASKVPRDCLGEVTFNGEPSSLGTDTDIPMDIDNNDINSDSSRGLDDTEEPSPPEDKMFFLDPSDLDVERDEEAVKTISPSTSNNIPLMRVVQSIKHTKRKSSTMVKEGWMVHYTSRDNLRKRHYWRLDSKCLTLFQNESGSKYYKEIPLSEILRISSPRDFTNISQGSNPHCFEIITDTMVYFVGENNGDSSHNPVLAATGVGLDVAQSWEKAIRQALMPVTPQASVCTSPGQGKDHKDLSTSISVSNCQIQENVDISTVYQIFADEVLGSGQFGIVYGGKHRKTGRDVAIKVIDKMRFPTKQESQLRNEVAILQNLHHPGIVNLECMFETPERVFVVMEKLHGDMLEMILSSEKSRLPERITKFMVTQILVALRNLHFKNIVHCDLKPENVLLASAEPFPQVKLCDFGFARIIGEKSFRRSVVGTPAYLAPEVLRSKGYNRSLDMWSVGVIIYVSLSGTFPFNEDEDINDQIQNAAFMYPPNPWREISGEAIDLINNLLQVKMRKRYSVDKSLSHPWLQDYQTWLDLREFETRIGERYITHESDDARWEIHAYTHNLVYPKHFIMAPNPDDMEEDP

[4] = target: T3, Mitogen-activated protein kinase kinase kinase kinase 2 (Homo sapiens) (UniProt Q12851); experiment: Selectivity interaction (SelectScreen profiling (Invitrogen)) EUB0000607a MAP4K2; details: at 2 µM
T3 sequence (whole entry): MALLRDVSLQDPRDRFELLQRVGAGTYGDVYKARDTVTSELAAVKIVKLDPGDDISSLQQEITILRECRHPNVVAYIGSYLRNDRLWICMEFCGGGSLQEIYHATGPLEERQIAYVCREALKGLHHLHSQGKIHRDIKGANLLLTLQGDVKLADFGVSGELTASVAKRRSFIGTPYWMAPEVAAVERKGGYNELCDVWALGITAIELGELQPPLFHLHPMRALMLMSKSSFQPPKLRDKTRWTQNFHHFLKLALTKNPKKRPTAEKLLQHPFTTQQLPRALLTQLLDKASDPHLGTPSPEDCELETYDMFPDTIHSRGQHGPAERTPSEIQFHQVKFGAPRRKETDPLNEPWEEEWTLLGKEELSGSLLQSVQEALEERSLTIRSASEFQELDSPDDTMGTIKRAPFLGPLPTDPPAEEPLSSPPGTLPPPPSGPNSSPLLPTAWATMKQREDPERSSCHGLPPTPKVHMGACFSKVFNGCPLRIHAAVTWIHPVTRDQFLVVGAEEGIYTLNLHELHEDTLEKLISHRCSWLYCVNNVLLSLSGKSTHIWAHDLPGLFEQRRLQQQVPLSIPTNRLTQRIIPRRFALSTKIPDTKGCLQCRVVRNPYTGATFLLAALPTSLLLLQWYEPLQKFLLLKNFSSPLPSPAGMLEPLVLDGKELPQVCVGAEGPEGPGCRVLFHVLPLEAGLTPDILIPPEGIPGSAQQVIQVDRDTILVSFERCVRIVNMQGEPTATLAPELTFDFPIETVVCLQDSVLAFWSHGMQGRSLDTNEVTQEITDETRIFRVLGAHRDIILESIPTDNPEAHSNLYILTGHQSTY

[5] = target: T4, N-lysine methyltransferase KMT5A (Homo sapiens) (UniProt Q9NQR1); experiment: Selectivity interaction (Methyltransferase screen (radiometric assays, panel of 8 PRMTs, 21 protein lysine methyltransferases, 3 DNA methyltransferases, and one RNA methyltransferase)) EUB0000272b SETD8
T4 sequence (whole entry): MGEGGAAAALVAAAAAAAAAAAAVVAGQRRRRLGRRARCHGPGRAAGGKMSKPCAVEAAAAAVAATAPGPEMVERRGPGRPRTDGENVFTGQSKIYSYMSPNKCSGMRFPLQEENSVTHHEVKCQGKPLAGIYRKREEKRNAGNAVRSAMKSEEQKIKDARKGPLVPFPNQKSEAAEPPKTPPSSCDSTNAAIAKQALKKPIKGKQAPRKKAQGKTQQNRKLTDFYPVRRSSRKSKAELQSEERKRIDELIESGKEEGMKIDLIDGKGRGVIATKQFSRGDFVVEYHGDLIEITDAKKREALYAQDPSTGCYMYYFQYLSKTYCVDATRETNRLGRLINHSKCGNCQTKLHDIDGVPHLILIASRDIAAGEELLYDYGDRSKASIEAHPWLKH

[6] = target: cAMP-dependent protein kinase catalytic subunit gamma (Homo sapiens) (UniProt P22612); experiment: Selectivity interaction (LanthaScreen Eu Kinase Binding Assay) EUB0001632a PRKACG; details: at 10 µM
cAMP-dependent protein kinase catalytic subunit gamma (Homo sapiens), sequence (P22612 2-351 limits assumed): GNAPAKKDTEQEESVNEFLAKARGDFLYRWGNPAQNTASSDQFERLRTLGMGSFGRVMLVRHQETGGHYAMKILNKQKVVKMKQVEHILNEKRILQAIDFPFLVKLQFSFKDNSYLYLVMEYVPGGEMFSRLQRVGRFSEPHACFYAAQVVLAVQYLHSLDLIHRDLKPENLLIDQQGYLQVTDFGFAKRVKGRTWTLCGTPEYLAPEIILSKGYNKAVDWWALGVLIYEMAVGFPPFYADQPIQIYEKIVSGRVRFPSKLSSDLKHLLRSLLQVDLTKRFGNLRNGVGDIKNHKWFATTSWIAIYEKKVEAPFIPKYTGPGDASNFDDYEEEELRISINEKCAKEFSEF

COc1cc(Nc2nc(C)cc(-c3cnn4nc(OC)ccc34)n2)cc(C(F)(F)F)c1
% of control [1]: 87%

C=CC(=O)Nc1cc(-n2c(=O)ccc3cnc4ccc(-c5ccc(NS(C)(=O)=O)cc5)cc4c32)ccc1C
% of control ([2]; at 1 µM): 100%
% of control ([2]; at 10 µM): 84%

Cc1cc(F)c(C(=O)Nc2cccc(-c3nncn3C(C)C)n2)cc1-n1cnc(C2CC2)c1
% of control [3]: 78%

CNC(=O)Nc1ccc(-c2nc(N3CC4CCC(C3)O4)c3cnn(C4CCC5(CC4)OCCO5)c3n2)cc1
% of inhibition [4]: 3%

Cc1cc(C)cc([C@H]2c3cc(C)ccc3NC(=O)CN2C(=O)c2ccc(Br)s2)c1
% of activity ([5]; at 1 µM): 98%
% of activity ([5]; at 10 µM): 102%

Cn1cc(-n2cnc3c(NCc4nc5cc(Cl)c(Cl)cc5[nH]4)nc(N4CCOCC4)nc32)cn1
% of inhibition [6]: -38.1%
